Source: ChEMBL document CHEMBL4304763 (Eur J Med Chem, 2019)
Each block holds one molecule with its values, some of them ahead of it. The source made the active and inactive calls. No cut-off for these calls is given here.

Key:
[1] = system: MCF7; assay: cells; conditions: Homo sapiens
[2] = system: T47D; assay: cells; conditions: Homo sapiens
[3] = system: ZR-75-1; assay: cells; conditions: Homo sapiens
[4] = system: COLO 205; assay: cells; conditions: Homo sapiens
[5] = system: A549; assay: cells; conditions: Homo sapiens
[6] = system: MCF7; type: functional, Homo sapiens; conditions: at 50 mg/kg
[7] = system: COLO 205; conditions: Homo sapiens
[8] = system: U-87 MG; assay: cells; conditions: Homo sapiens
[9] = system: U-251; assay: cells; conditions: Homo sapiens
[10] = system: HepG2; assay: cells; conditions: Homo sapiens
[11] = system: SNU-5; assay: cells; conditions: Homo sapiens
[12] = system: NCI-N87; assay: cells; conditions: Homo sapiens
[13] = system: NCI-H1975; assay: cells; conditions: Homo sapiens
[14] = system: NCI-H1993; assay: cells; conditions: Homo sapiens
[15] = system: CFPAC-1; assay: cells; conditions: Homo sapiens
[16] = system: PANC-1; assay: cells; conditions: Homo sapiens
[17] = system: BXPC-3; assay: cells; conditions: Homo sapiens
[18] = system: LNCaP; assay: cells; conditions: Homo sapiens
[19] = system: PC-3; assay: cells; conditions: Homo sapiens
[20] = in vivo; conditions: BALB/c, mouse, iv, 3 mg/kg
[21] = in vivo; conditions: BALB/c, mouse, iv, 3 mg/kg; remark: listed apart in the source
[22] = in vivo; conditions: BALB/c, mouse, iv, 3 mg/kg; remark: listed apart in the source
[23] = in vivo; conditions: BALB/c, mouse, iv, 3 mg/kg; remark: listed apart in the source
[24] = in vivo; conditions: BALB/c, mouse, iv, 3 mg/kg; remark: listed apart in the source
[25] = in vivo; conditions: BALB/c, mouse, po, 10 mg/kg
[26] = in vivo; conditions: BALB/c, mouse, po, 10 mg/kg; remark: listed apart in the source
[27] = in vivo; conditions: BALB/c, mouse, po, 10 mg/kg; remark: listed apart in the source
[28] = in vivo; conditions: BALB/c, mouse, po, 10 mg/kg; remark: listed apart in the source
[29] = in vitro; conditions: human, microsomes
[30] = in vitro; conditions: mouse, microsomes
[31] = in vitro; conditions: rat, microsomes
[32] = in vitro; conditions: dog, microsomes
[33] = in vitro; conditions: rhesus monkey, microsomes
[34] = in vitro; conditions: human, microsomes; remark: listed apart in the source
[35] = in vitro; conditions: mouse, microsomes; remark: listed apart in the source
[36] = in vitro; conditions: rat, microsomes; remark: listed apart in the source
[37] = in vitro; conditions: dog, microsomes; remark: listed apart in the source
[38] = in vitro; conditions: rhesus monkey, microsomes; remark: listed apart in the source

IC50 [1]: 193 nM
IC50 [2]: 62.5 nM
IC50 [3]: 121 nM
IC50 [4]: 125 nM
IC50 [5]: 423 nM
SMILES: C/C(=N\O)N(C)CCN1CCc2nc(Nc3ncc(F)c(-c4cc(F)c5nc(C)n(C(C)C)c5c4)n3)ccc2C1

SMILES: CCOP(=O)(OCC)N(C)CCN1CCc2nc(Nc3ncc(F)c(-c4cc(F)c5nc(C)n(C(C)C)c5c4)n3)ccc2C1
IC50 [1]: 150 nM
IC50 [3]: 453 nM
IC50 [4]: 911 nM
IC50 [5]: 1060 nM

SMILES: Cc1nc2c(F)cc(-c3nc(Nc4ccc5c(n4)CCN(CCN(C)P(C)(C)=O)C5)ncc3F)cc2n1C(C)C
IC50 [1]: 551 nM
IC50 [2]: 29 nM
IC50 [4]: 387 nM
IC50 [5]: 934 nM

IC50 [8]: 706 nM
IC50 [9]: 294 nM
IC50 [10]: 216 nM
IC50 [11]: 523 nM
IC50 [12]: 519 nM
IC50 [13]: 774 nM
IC50 [14]: 1160 nM
IC50 [15]: 371 nM
IC50 [16]: 701 nM
IC50 [17]: 127 nM
IC50 [18]: 84 nM
IC50 [19]: 9210 nM
Cmax at 24 h [20]: 765 ng/mL
AUC(0-t) at 24 h [21]: 830 ng·h/mL
half-life at 24 h [22]: 325 min
Vd at 24 h [23]: 8.24 L/kg
clearance at 24 h [24]: 60 mL/min/kg
Cmax at 24 h [25]: 577 ng/mL
AUC(0-t) at 24 h [26]: 2170 ng·h/mL
half-life at 24 h [27]: 283 min
bioavailability at 24 h [28]: 78.6%
half-life at 1 h [29]: 8.15 min
half-life at 1 h [30]: 8.25 min
half-life at 1 h [31]: 231 min
half-life at 1 h [32]: 17.8 min
half-life at 1 h [33]: 3.96 min
microsomal CLint at 1 h [34]: 170 µL/min/mg
microsomal CLint at 1 h [35]: 168 µL/min/mg
microsomal CLint at 1 h [36]: 6 µL/min/mg
microsomal CLint at 1 h [37]: 78 µL/min/mg
microsomal CLint at 1 h [38]: 350 µL/min/mg
SMILES: CCN1CCN(Cc2ccc(Nc3ncc(F)c(-c4cc(F)c5nc(C)n(C(C)C)c5c4)n3)nc2)CC1 [ABEMACICLIB]
T/C [6]: 37%
TGI [7]: Active
